Reference: article PMC5937145, “Synergism of Antimicrobial Frog Peptides Couples to Membrane Intrinsic Curvature Strain” (Biophysical Journal, 2018)
Marks after values point to notes of the source that are not given here. Bridge positions count the residues as written; N and C are the ends. Ends that are not written are not given here. I, II: the chains in the order shown.

How the values were obtained:
[1] = ANTS/DPX leakage of POPE/POPG LUVs; assay type: biochemical; conditions: for Leakage: POPE/POPG LUVs, lipid 50 μM, pH 7.4, 37°C
Method: (§1) Large unilamellar vesicles (LUVs) of ∼100 nm size were prepared and assayed for AMP-induced fluorescence leakage as described previously ([23]). Intrinsic lipid curvatures were determined using a SAXSpace small-angle x-ray camera (Anton Paar, Graz, Austria) applying previously developed procedures ([24]). Monte Carlo (MC) simulations were performed using the Metropolis scheme and computationally efficient implicit-solvent coarse-grained models. Lipids were described by a three-bead model developed by Cooke and Deserno ([25]), and the peptide was modeled by a patchy spherocylinder ([26]). Free-energy calculations for peptide translocation were performed using the Wang-Landau method ([27]). For details of experimental and simulation procedures, see the Supporting Material. […]
Lipid films (20 mg total lipid) for dye-release experiments were prepared by mixing the appropriate amounts of dissolved phospholipids before evaporation of solvents under a stream of nitrogen and stored in vacuum overnight. After addition of Hepes buffer containing the fluorophor/quencher ANTS/DPX (10 mM Hepes, 68 mM NaCl, 12.5 mM ANTS, 45 mM DPX, pH 7.4), formation of lipid vesicles was achieved by equilibration at 15°C above the lipid’s melting temperature and intermittent vigorous vortex mixing. PE/PG-mixtures were additionally homogenized by six freeze/thaw-cycles. Large unilamellar vesicles (LUVs) were obtained by 25 cycles of extrusion of the hydrated liposomes through a polycarbonate filter (Millipore-IsoporeTM, Merck, Vienna) of 0.1 µm pore size above the lipid’s melting temperature. Non-encapsulated fluorophore and quencher were removed by size-exclusion chromatography using SephadexTM G-75 (Sigma-Aldrich, Vienna) gel as described earlier (1). LUVs were eluted with Hepes buffer (10 mM Hepes, 140 mM NaCl, pH 7.4). Liposomal lipids were quantified by the determination of lipid phosphorus according the method described by (2). The final LUV concentration for dye-release experiments was adjusted to 50 µM in Hepes buffer (10 mM Hepes, 140 mM NaCl, pH 7.4). […]
Leakage of the aqueous content of ANTS/DPX-loaded LUVs upon incubation with peptides was determined according to (9) and as detailed previously (1). Briefly, 2 ml of LUV suspension was filled into quartz cuvettes and equilibrated at 37°C for 5 minutes. Incremental amounts of peptide solutions prepared in Hepes buffer were added to the LUV suspension with µ-pipettes and mixed using a magnetic stirrer to achieve final peptide concentrations ranging from 0.016 - 1 μM, corresponding to peptide-to-lipid molar ratios from 1:3200 to 1:50. Fluorescence emission was recorded 5 minutes before and after the addition of peptides on a Cary Eclipse Fluorescence Spectrophotometer (Varian Inc., now Agilent Technologies, California, US) using an excitation wavelength of λex = 360 nm and an emission wavelength λem = 530 nm. The slit widths for excitation and emission monochromators were set to 10 nm.
(§2) Percentage of leakage was calculated from the fraction of the leakage (10) […]
(§3) where F is the measured fluorescence, F0 is the initial fluorescence without peptide, and Fmax is the fluorescence corresponding to 100% leakage gained by addition of 1% Triton X-100. […]
In order to verify the dimeric or monomeric state of peptides, 2 µg of peptides were dissolved in loading buffer without DTT and separated by a one-dimensional SDS-PAGE using 5 % stacking and 18 % separating gels according to the method of Laemmli (11). […]

[2] = system: E. coli K12; experiment: MIC, inhibition of bacterial growth (turbidimetric, Bioscreen C); assay type: cell-based, Escherichia coli; conditions: E. coli K12, Mueller-Hinton broth without Ca2+, 37°C, no increment of turbidity after 48 h, CLSI guidelines
Method: To study the effect of magainins on metabolically active bacteria, we assessed the antimicrobial activity of the peptides by determining the MIC values according to Clinical and Laboratory Standards Institute (CLSI, formerly National Committee for Clinical Laboratory Standards) guidelines.
Inhibition of bacterial growth by frog peptides was determined using an automated turbidimetric-based system (Bioscreen C, Labsystem, Helsinki, Finland), which measures absorbance of cell cultures in 100-well plates at regular time intervals (λ = 580 nm). Assays were performed in Mueller-Hinton (MH) broth without Ca2+ (18) using Bioscreen polystyrene honeycomb 100-well plates. Briefly, serial dilutions of the AMPs or control antibiotics (gentamicin and ampicillin B) were made in MH broth and dispensed with a multi-pipette into […]
polystyrene honeycomb 100-well plates. E. coli K12 cells grown for 18–20 h on agar plates were suspended in saline adjusting the turbidity to an optical density at λ=565 nm (OD565) of 0.5 (~1 × 10^8 cells/mL) using a DEN-1B densitometer (Grant Instruments, Cambridge, UK).
A fifty-fold dilution of this E. coli suspension prepared in MH broth was mixed with 50 µL (1:1 volume ratio) of a given peptide solution by three times up and down pipetting. Resulting cell suspensions were grown at 37°C with continuous, low amplitude shaking. The turbidity was measured in intervals of 5 minutes (filter bandwidth: λ= 420 – 580 nm). MIC was considered as the minimum concentration of peptide that inhibited any increment of turbidity […]
2011. Studies on lactoferricin-derived Escherichia coli membrane-active peptides reveal differences in the mechanism of N-acylated versus nonacylated peptides. J Biol Chem […]
2. Broekhuyse, R. M. 1968. Phospholipids in tissues of the eye. […]
vinyl-ether phospholipids. Biochim Biophys Acta 152:307–315.
Chemistry and physics of lipids 154:64–67.
8. Israelachvili, J. N. 2011. Intermolecular and surface forces, 3rd ed. Academic Press, […]

[3] = cited from earlier work
Source text: Table 2 Thermodynamics of AMP Insertion in PC Membranes According to the Wimley-White Hydrophobicity Scale | column: % helix in PC

[4] = ANTS/DPX leakage of POPC/POPG LUVs; assay type: biochemical; conditions: 1 μM peptide, lipid 50 μM, pH 7.4, 37°C, three independent measurements
Method: as §1
(§4) Lipid films (20 mg total lipid) for dye-release experiments were prepared by mixing the appropriate amounts of dissolved phospholipids before evaporation of solvents under a stream of nitrogen and stored in vacuum overnight. […] Liposomal lipids were quantified by the determination of lipid phosphorus according the method described by (2). […]
(§5) Leakage of the aqueous content of ANTS/DPX-loaded LUVs upon incubation with peptides was determined according to (9) and as detailed previously (1). […]
as §2

[5] = ANTS/DPX leakage of lyso-PE/POPE/POPG LUVs; assay type: biochemical; conditions: 1 μM peptide, lipid 50 μM, pH 7.4, 37°C, three independent measurements
Method: as §1, §4, §5, §2

[6] = ANTS/DPX leakage of POPC LUVs; assay type: biochemical; conditions: within studied concentration range 0.016-1 μM, lipid 50 μM, pH 7.4, 37°C, three independent measurements
Method: as §1, §4, §5, §2

[7] = cited from earlier work; remark: listed apart in the source
Source text: Intriguingly, however, cytoplasmic membranes of Gram-negative bacteria are enriched in lipids with negative intrinsic curvature, such as phosphatidylethanolamine (PE) ([20]). This prompted us to correlate membrane-permeabilizing activities of magainin monomers and dimers in different lipid-only model systems with various intrinsic curvatures J0 determined from small-angle x-ray scattering (SAXS). In particular, we studied the activity of L18W-PGLa and MG2a, as well as their analogs containing GGC linkers, which were used to form the L18W-PGLa-MG2a hybrid peptide (Fig. 1). The choice of L18W-PG ...

[8] = ANTS/DPX leakage of POPC/Chol LUVs; assay type: biochemical; conditions: lipid 50 μM; for Leakage: dimers and mixture, highest concentration studied (1 μM), pH 7.4, 37°C
Method: as §1
Lipid films (20 mg total lipid) for dye-release experiments were prepared by mixing the appropriate amounts of dissolved phospholipids before evaporation of solvents under a stream of nitrogen and stored in vacuum overnight. After addition of Hepes buffer containing the fluorophor/quencher ANTS/DPX (10 mM Hepes, 68 mM NaCl, 12.5 mM ANTS, 45 mM DPX, pH 7.4), formation of lipid vesicles was achieved by equilibration at 15°C above the lipid’s melting temperature and intermittent vigorous vortex mixing. […] Liposomal lipids were quantified by the determination of lipid phosphorus according the method described by (2). […]
Leakage of the aqueous content of ANTS/DPX-loaded LUVs upon incubation with peptides was determined according to (9) and as detailed previously (1). […] Fluorescence emission was recorded 5 minutes before and after the addition of peptides on a Cary Eclipse Fluorescence Spectrophotometer (Varian Inc., now Agilent Technologies, California, US) using an excitation wavelength of λex = 360 nm and an emission wavelength λem = 530 nm. […]
as §2, §3

[9] = individual peptides at concentrations above 0.25 μM up to 1 μM (remained at the same level), three independent measurements
[10] = dimers, plateau/final value at high peptide concentration (up to 1 μM)

Substance	Leakage [1, 9]	MIC [2]	% helix in PC [3]	Leakage [4]	Leakage [5]	Maximal leakage [6]	Dye release from lipid vesicles compared to native PGLa [7]	Leakage [1, 10]	Leakage [8]	Permeabilization capabilities after DTT reduction ([1]; POPE/POPG vesicles, DTT (40 μM) added to peptide solution before mixing with LUVs)	Peptide concentration above which active (leakage) [8]
GIGKFLHSAKKFGKAFVGEIMNS-NH2 [MG2a]	≤ 6%	62.5 µg/mL	83 ^a %	–	–	–	–	–	–	–	–
GMASKAGAIAGKIAKVAWKAL-NH2 [L18W-PGLa]	≤ 6%	~31.25 µg/mL	72 ^b %	full LUV leakage	full LUV leakage	≤ 10%	almost identical to that induced by native PGLa	–	–	–	–
I: GIGKFLHSAKKFGKAFVGEIMNSGGC-NH2 / II: GIGKFLHSAKKFGKAFVGEIMNSGGC-NH2 (disulfide I:26-II:26 (inferred)) [MG2a homodimers]	–	7.8 µg/mL	–	–	–	–	–	~60%	not able to induce significant dye release	–	–
I: GMASKAGAIAGKIAKVAWKALGGC-NH2 / II: GMASKAGAIAGKIAKVAWKALGGC-NH2 (disulfide I:24-II:24) [L18W-PGLa homodimers]	–	~7.8 µg/mL	–	–	–	–	–	~100%	~74%	identical with that of L18W-PGLa peptide	> 0.1 µM
